This note sets out measurements from the NIST ThermoML archive (doi:10.1016/j.jct.2012.02.005).

Each structure is given as a SMILES string. ± gives the expanded uncertainty stated by the source.

The conditions of series [1]: Crystal; DTA.
Series [2] can be described thus: Molar enthalpy of transition or fusion. As to conditions: Crystal; DSC.

`c1ccc2nsnc2c1` [2,1,3-benzothiadiazole]: in series [1], the Triple point temperature is reported as 316.96 ± 0.39 K. Moreover, the “Molar enthalpy of transition or fusion” value in series [2] was 3.9 ± 0.0932 kcal/mol.
